The record followed here is PubChem BioAssay (NCI).

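Interpolation was linear, between the two tested concentrations surrounding the appropriate level; five concentrations were tested over 48 hours in 96-well plates. GI50 is the concentration that inhibits growth by half. Definition used: TGI = concentration required for complete inhibition of growth.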

Test systems include TK-10 renal; HCT-116 colon; HT29 colon; CAKI-1 renal; RPMI-8226 leukemia; SK-MEL-28 melanoma; HCT-15 colon; NCI/ADR-RES ovarian; SNB-19 CNS; PC-3 prostate.
Assay in all cases: inhibition of tumour cell growth, NCI panel, 48 h

As to `COC(=O)Nc1nc2ccc(C(=O)c3ccc[nH]3)cc2[nH]1`, the TGI was over 93.6 µM in the assay with TK-10 renal; over 100 µM in the assay on HCT-116 colon; over 100 µM with HT29 colon; over 100 µM in the assay with CAKI-1 renal; over 100 µM with RPMI-8226 leukemia; over 100 µM with SK-MEL-28 melanoma. Besides, the TGI in the assay on HCT-15 colon was over 100 µM; in the assay with NCI/ADR-RES ovarian it was 9.01 µM; in the assay on SNB-19 CNS it was over 54.7 µM.
With `C1CCC([PH+](C2CCCCC2)C2CCCCC2[PH+](C2CCCCC2)C2CCCCC2)CC1.[Au].[CH-]1CCCCC1C1CCCC[N-]1` (centres undefined), the GI50 in the assay with TK-10 renal was 0.463 µM; with PC-3 prostate, 0.249 µM; in the assay with RPMI-8226 leukemia, 0.132 µM; in the assay on SK-MEL-28 melanoma, 0.434 µM; in the assay with HCT-15 colon it was 1.5 µM; with NCI/ADR-RES ovarian it was 2.97 µM. The TGI in the assay with TK-10 renal is 1.86 µM; with PC-3 prostate it was 5.26 µM; in the assay with RPMI-8226 leukemia, over 100 µM; in the assay on SK-MEL-28 melanoma it was 1.79 µM; in the assay with HCT-15 colon, 3.03 µM; in the assay on NCI/ADR-RES ovarian, over 100 µM.
As to `COc1cc2c(cc1OC)C(=O)C(Br)CC2` (centres undefined), the GI50 with TK-10 renal is 5.17 µM; in the assay with HCT-116 colon, 1.74 µM; in the assay on HT29 colon, 3.72 µM; in the assay with PC-3 prostate, 8.8 µM; with CAKI-1 renal, 3.56 µM; in the assay on SK-MEL-28 melanoma it was 4.85 µM. Also, the results for the GI50 in the assay with HCT-15 colon, in the assay on NCI/ADR-RES ovarian and in the assay with SNB-19 CNS were 2.33 µM, 4.5 µM and 8.96 µM, respectively. Further, the TGI stood at 17.8 µM in the assay with TK-10 renal; 3.72 µM in the assay with HCT-116 colon; 12.1 µM in the assay with HT29 colon; 23.1 µM with PC-3 prostate; 12.4 µM in the assay with CAKI-1 renal; 16.3 µM with SK-MEL-28 melanoma. For the same compound, the TGI is 7.37 µM in the assay with HCT-15 colon, 37.3 µM with NCI/ADR-RES ovarian and 21.3 µM in the assay on SNB-19 CNS.
In the case of `COc1ccc(/C(=C/c2cc(OC)c(OC)c(OC)c2)[N+](=O)[O-])cc1`, the GI50 with TK-10 renal is 1.88 µM; in the assay with HT29 colon it was 3.68 µM; with PC-3 prostate, 1.95 µM; in the assay with RPMI-8226 leukemia, 1.7 µM; in the assay on SK-MEL-28 melanoma it was 1.88 µM; in the assay on HCT-15 colon, 1.63 µM. The GI50 with NCI/ADR-RES ovarian is 2.47 µM; with SNB-19 CNS it was 1.68 µM. Also, the TGI worked out at 3.59 µM with TK-10 renal; 8.98 µM in the assay with HT29 colon; 3.88 µM in the assay with PC-3 prostate; 4.77 µM with RPMI-8226 leukemia; 3.9 µM in the assay on SK-MEL-28 melanoma; 3.54 µM with HCT-15 colon. Also, the TGI with NCI/ADR-RES ovarian was found to be 7.55 µM; in the assay on SNB-19 CNS it was 3.64 µM.
`Cc1ccc(S(=O)(=O)N/N=C/C(Br)=C(/Br)C(=O)O)cc1`: the TGI in the assay on TK-10 renal amounted to 22.9 µM; in the assay on HT29 colon, 26.8 µM; in the assay on PC-3 prostate it was 29.3 µM; with CAKI-1 renal, 18.1 µM; with RPMI-8226 leukemia it was 6.18 µM; in the assay with SK-MEL-28 melanoma it was 9.65 µM. The TGI with HCT-15 colon was 8.67 µM; in the assay with NCI/ADR-RES ovarian, 17.9 µM; in the assay on SNB-19 CNS, 28.8 µM.
`Cc1ccc(-c2c(C#N)c(N)nc(N3CCOCC3)c2C#N)o1`: the GI50 in the assay on TK-10 renal was 35.4 µM; with HCT-116 colon, 33.5 µM; in the assay on HT29 colon, 30.1 µM; in the assay on PC-3 prostate, 30.6 µM; with RPMI-8226 leukemia it was 49.8 µM; with SK-MEL-28 melanoma, 71.3 µM. Moreover, the GI50 in the assay on NCI/ADR-RES ovarian is 33.6 µM. Moreover, the TGI with TK-10 renal, with HCT-116 colon, in the assay with HT29 colon, in the assay on PC-3 prostate, in the assay with RPMI-8226 leukemia and with SK-MEL-28 melanoma was over 100 µM each time. The compound further returned a TGI with NCI/ADR-RES ovarian of over 100 µM.
For the compound `OB([O][Hg][c]1ccccc1)[O][Hg][c]1ccccc1`, the GI50 in the assay with HCT-116 colon was 0.161 µM; in the assay with HT29 colon it was 0.384 µM; in the assay on PC-3 prostate, 0.758 µM; in the assay on CAKI-1 renal it was 0.639 µM; in the assay on RPMI-8226 leukemia, 0.211 µM; in the assay with SK-MEL-28 melanoma it was 0.318 µM. Moreover, the GI50 in the assay with HCT-15 colon was 0.141 µM; in the assay with NCI/ADR-RES ovarian, 1.69 µM; in the assay with SNB-19 CNS, 1.46 µM. Further, the TGI amounted to 0.307 µM with HCT-116 colon; 1.75 µM in the assay on HT29 colon; 2.42 µM in the assay on PC-3 prostate; 2.01 µM in the assay with CAKI-1 renal; 0.592 µM in the assay with RPMI-8226 leukemia; 1.33 µM in the assay with SK-MEL-28 melanoma. Besides, the TGI with HCT-15 colon was found to be 0.354 µM; in the assay with NCI/ADR-RES ovarian, 4.45 µM; in the assay with SNB-19 CNS, 2.84 µM.
Regarding `CNC(=O)OCc1nc(SC(C)C)n(C)c1COC(=O)NC`, the TGI in the assay on HCT-116 colon, with HT29 colon, in the assay on CAKI-1 renal, with RPMI-8226 leukemia, with SK-MEL-28 melanoma and with HCT-15 colon was over 100 µM each time. The TGI in the assay on NCI/ADR-RES ovarian and in the assay with SNB-19 CNS was over 100 µM throughout.
`O=C(CCCc1c[nH]c2ccccc12)NC1CC(=O)c2c(Br)sc(Br)c21` (centres undefined): the GI50 in the assay on TK-10 renal is 26 µM; in the assay with HT29 colon it was 7.13 µM; in the assay with PC-3 prostate, 21 µM; with CAKI-1 renal it was 10.2 µM; in the assay with RPMI-8226 leukemia, 4.37 µM; in the assay on SK-MEL-28 melanoma it was 2.77 µM. Moreover, the GI50 is 3.51 µM in the assay with HCT-15 colon, 23.3 µM with NCI/ADR-RES ovarian and 14.3 µM in the assay with SNB-19 CNS. Besides, the TGI with TK-10 renal was over 100 µM; with HT29 colon, 22 µM; in the assay with PC-3 prostate, 75.7 µM; in the assay with CAKI-1 renal, 31.6 µM; in the assay with RPMI-8226 leukemia it was over 100 µM; with SK-MEL-28 melanoma, 9.02 µM. In addition, the TGI in the assay on HCT-15 colon came to 10.9 µM; in the assay with NCI/ADR-RES ovarian, 70.3 µM; with SNB-19 CNS it was 29 µM.
On to `Nc1ccn(C=C=CCO)c(=O)n1`, for which the GI50 with TK-10 renal, in the assay on HCT-116 colon, with HT29 colon, in the assay on PC-3 prostate, with CAKI-1 renal and with HCT-15 colon was over 1000 µM throughout. Moreover, the GI50 in the assay with NCI/ADR-RES ovarian and with SNB-19 CNS was over 1000 µM in each case. The TGI in the assay on TK-10 renal, in the assay with HCT-116 colon, in the assay on HT29 colon, in the assay with PC-3 prostate, in the assay on CAKI-1 renal and in the assay with RPMI-8226 leukemia was over 1000 µM in each case. The TGI with HCT-15 colon, with NCI/ADR-RES ovarian and with SNB-19 CNS was over 1000 µM in each case.
